Measurements from patent US20250161216A1, “CATIONIC LIPID ANALOGUES, COMPOSITIONS AND USES THEREOF” (GUANGZHOU LIDE BIOMEDICINE TECHNOLOGY CO., LTD., priority 2022, published 2025).

Legend:
C57BL/6 mice [1] = assay: In vivo expression level of Luciferase-mRNA delivered by tracheal injection (bioluminescence imaging); conditions: mRNA-loaded nanoparticles, 5 μg Luciferase-mRNA, 6 hours
Protocol: (§1) Luciferase-mRNA was used as an mRNA model; and the cationic lipid analogue A1I4R22C18-2 of Example 2 was used to prepare drug-loaded nanoparticles according to the method of Example 6.
(§2) 100 μL of nanoparticles containing 5 μg Luciferase-mRNA or the drug-loaded nanoparticles prepared above were tracheally injected into 6-8 week-old C57BL/6 mice, and 200 μL of 1×PBS solution containing 3 mg D-Luciferin potassium salt was intraperitoneally injected into the mice 6 hours later. After waiting for 10 min, an in vivo mRNA expression level was evaluated by bioluminescence imaging.

C57BL/6 mice [2] = assay: In vivo expression level of Luciferase-mRNA delivered by intramuscular injection (bioluminescence imaging); conditions: mRNA-loaded nanoparticles, intramuscular (leg muscle), 5 μg Luciferase-mRNA, 6 hours
Method in brief: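 LNPs prepared with cationic lipid analogues carrying 5 μg Luciferase-mRNA injected into leg muscle of 6-8 week-old C57BL/6 mice. D-Luciferin (3 mg, i.p.) given 6 h post-dose; bioluminescence imaged 10 min later as in vivo mRNA expression level.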

C57BL/6 mice [3] = assay: In vivo expression level of Luciferase-mRNA delivered by intraperitoneal injection (bioluminescence imaging); conditions: mRNA-loaded nanoparticles, 5 μg Luciferase-mRNA, 6 hours
Protocol: as §1
as §2, with “200” for “100”, “intraperitoneally” for “tracheally”, “minutes,” for “min,”, “level of the m-RNA” for “level”

C57BL/6 mice [4] = assay: In vivo expression level of Luciferase-mRNA delivered by intravenous injection (bioluminescence imaging); conditions: mRNA-loaded nanoparticles, intravenous (tail vein), 5 μg Luciferase-mRNA, 6 hours
Method in brief: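 Lipid nanoparticles carrying 5 μg Luciferase-mRNA given by tail-vein injection to 6-8-week-old C57BL/6 mice. At 6 h, 3 mg D-luciferin i.p. in PBS; bioluminescence imaged 10 min later as the expression read-out.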

[5] = Characterization of the lipid nanoparticles prepared in Example 6; type: physicochemical; conditions: cationic lipid analogue:cholesterol:DSPC:DMG-PEG 50:38.5:10:1.5
Source text: The drug-loaded nanoparticle included a cationic lipid analogue, cholesterol, distearoylphosphatidylcholine (DSPC), and 1,2-dimyristoyl-rac-glycerol-3-methoxypolyethylene glycol (DMG-PEG), • wherein a molar ratio of the cationic lipid analogue:cholesterol:DSPC:DMG-PEG was 50:38.5:10:1.5.
In the drug-loaded nanoparticle, a mass ratio of the cationic lipid analogue to the nucleic acid drug, such as mRNA or siRNA, etc., was 11:1.
A cationic lipid analogue, cholesterol, DSPC, and DMG-PEG were dissolved in an ethanol solution, and mixed in the above-mentioned molar ratio to obtain an organic phase. Then, an mRNA nucleic acid drug at a corresponding mass ratio was dissolved in a sodium acetate buffer solution (25 mM, pH=3.0) to obtain an aqueous phase, so that a volume ratio of the aqueous phase to the organic phase was 3:1. Then, the aqueous phase was quickly added to the organic phase and mixed evenly, and the mixture was allowed to stand for 10 minutes. After that, the mixture was put into a 1000 Da dialysis bag, and dialyzed in a 1×PBS solution at 4° C. for 2 hours to obtain the nanoparticle that can be directly used for injection.

| Diameter of the nanoparticles [5] [nm] | PDI [5] | Zeta potential [5] [mV] | encapsulation efficiency [5] [%] | SMILES | Fluorescence intensity of spleen (C57BL/6 mice [1]) | Local fluorescence intensity (C57BL/6 mice [2]; compounds of Example 2) | Fluorescence intensity of spleen (C57BL/6 mice [3]) | Fluorescence intensity of spleen (C57BL/6 mice [4]; compounds of Example 2) | Local fluorescence intensity (C57BL/6 mice [2]; compounds of Example 3) | Fluorescence intensity of spleen (C57BL/6 mice [4]; compounds of Example 3) | Local fluorescence intensity (C57BL/6 mice [2]; compounds of Example 5) | Fluorescence intensity of spleen (C57BL/6 mice [4]; compounds of Example 5) | Local fluorescence intensity (C57BL/6 mice [2]; compounds of Example 1) | Bioluminescence intensity (C57BL/6 mice [4]; compounds of Example 1) |
| --- | --- | --- | --- | --- | --- | --- | --- | --- | --- | --- | --- | --- | --- | --- |
| 133 ± 6 | 0.17 | −5.5 | 62.1 | CCCCC/C=C\C/C=C\CCCCCCCC(=O)N(CCO)C(C(=O)NCCN(C)CCNC(=O)C(C(C)C)N(CCO)C(=O)CCCCCCC/C=C\C/C=C\CCCCC)C(C)C (centres unmarked) [A1I4R22C18-2] | 2.54E+05 | 2.69E+05 | 6.48E+06 | 1.47E+06 | – | – | – | – | – | – |
| 144 ± 7 | 0.22 | −7.2 | 65.4 | CCCCCCCCCCSSCCC(=O)N(CCO)C(C(=O)NCCN(CCNC(=O)C(C(C)C)N(CCO)C(=O)CCSSCCCCCCCCCC)CCNC(=O)C(C(C)C)N(CCO)C(=O)CCSSCCCCCCCCCC)C(C)C (centres unmarked) [A1I5R22S15] | – | – | – | – | 1.50E+06 | 3.40E+06 | – | – | – | – |
| 150 ± 9 | 0.21 | −3.1 | 60.5 | CCCCC/C=C\C/C=C\CCCCCCCC(=O)N(CCN(CCN(C(=O)CCCCCCC/C=C\C/C=C\CCCCC)C(C(=O)NCC(=O)OCC)C(C)C)CCN(C(=O)CCCCCCC/C=C\C/C=C\CCCCC)C(C(=O)NCC(=O)OCC)C(C)C)C(C(=O)NCC(=O)OCC)C(C)C (centres unmarked) [A1I32R47C18-2] | – | – | – | – | – | – | 3.68E+04 | 8.50E+03 | – | – |
| 83 ± 9 | 0.12 | −3.2 | 75.3 | CCCCC/C=C\C/C=C\CCCCCCCC(=O)N(CCCN(CC)CC)C(C(=O)NCCCCCCCCCCCCCCCCCC)C(CC)CCCC (centres unmarked) [A4I18R3C18-2] | – | – | – | – | – | – | – | – | 3.08E+07 | 2.29E+07 |
